19 molecules from patent US11731965B2, “Tetrahydroprotoberberine compound, preparation method therefor and uses thereof, and pharmaceutical composition” (SHANGHAI INSTITUTE OF MATERIA MEDICA, CHINESE ACADEMY OF …, priority 2017, dated 2023) can be followed below.

Each structure is given as a SMILES string. Counter-ions that a name gives are not always drawn.

Assay [1] concerns PCP-induced high spontaneous activity in mice. Kind of assay: PCP-induced high spontaneous activity test in mice. In kind it is in vivo, Male ICR mice. To be noted: dose by gavage that significantly reduces PCP (7 mg/kg ip) induced high spontaneous activity of mice vs model group. On the procedure:
PCP (phencylidine) was dissolved in physiological saline to prepare a 7 mg/kg solution. The test compound was formulated with a 0.5% CMC-Na solution to a solution with suitable concentration, ready-to-use. Male ICR mice were 18-22 g. Mice were randomly divided into a solvent control group, a model control group, a positive control group, and each test drug group during the test. There were 8 mice in each group. Mice in each group were given each test drug by gavage. 45 minutes after the test drug was administered, mice were injected with a PCP (7 mg/kg) solution intraperitoneally. The spontaneous, open field video analysis system was used to record the mouse movement trajectory within 45 min after administration of test drug or saline, and then the mouse movement trajectory within 75 min after PCP administration. Spontaneous, open field video analysis system was used to analyze the mouse's movement trajectory, and the total distance of the movement of the mice in each group was counted. The result was expressed as mean±SD. Results were analyzed by one-way analysis of variance.

Assay [2] concerns the target T1, human recombinant D1 receptor (Homo sapiens, UniProt P21728).
T1 construct: expressed in transfected cells; host or cells: HEK293
Briefly: D1 antagonistic activity test (LANCE cAMP, antagonism of dopamine-induced cAMP production in HEK293 cells). In kind it is cell-based. To be noted: HEK293 cells expressing human recombinant D1 receptor; test concentration 0.1 nM to 10000 nM; read-out: D1 Antagonistic Activity (IC50, nmol/L). As for the experimental part: • 1) D1 antagonistic activity test
The D1 antagonism of the compound was evaluated by testing the antagonistic action of the compounds against dopamine on the induction of cAMP production in HEK293 cells. The cAMP concentration test was performed according to the method described in the kit instructions. The test concentration of the compound was 0.1 nM to 10000 nM. SCH23390 was used as a positive control. The IC50 was calculated by Excelfit software.

The target of assay [3] is T2, human recombinant 5-HT1A receptor (Homo sapiens, UniProt P08908).
T2 construct: expressed in transfected cells; host or cells: HEK293
T2 sequence (P08908 1-422): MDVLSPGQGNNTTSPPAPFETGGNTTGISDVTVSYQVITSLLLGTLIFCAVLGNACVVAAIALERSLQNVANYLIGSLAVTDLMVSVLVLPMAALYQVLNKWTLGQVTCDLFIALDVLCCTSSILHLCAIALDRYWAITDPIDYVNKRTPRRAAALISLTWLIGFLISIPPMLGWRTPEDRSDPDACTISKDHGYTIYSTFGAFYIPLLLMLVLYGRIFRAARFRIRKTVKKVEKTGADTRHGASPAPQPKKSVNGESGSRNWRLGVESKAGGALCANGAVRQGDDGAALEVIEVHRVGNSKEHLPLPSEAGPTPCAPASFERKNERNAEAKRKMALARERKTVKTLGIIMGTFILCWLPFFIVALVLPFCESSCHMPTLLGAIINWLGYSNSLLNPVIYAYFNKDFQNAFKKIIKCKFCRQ
Kind of assay: 5-HT1A agonistic activity test (LANCE cAMP, inhibition of cAMP production in HEK293 cells). Particulars: HEK293 cells expressing human recombinant 5-HT1A receptor; test concentration 0.1 nM to 10000 nM; read-out: 5-HT1A Agonistic Activity (EC50, nmol/L). In kind it is cell-based. On the procedure: • 3) 5-HT1A agonistic activity test
LANCE™ cAMP 384 Kit (PerkinElmer, USA) was used to test the agonistic effect of the compound on 5-HT1A receptor using the HEK293 cells expressing human recombinant 5-HT1A receptor. The 5-HT1A agonistic effect of the compound was evaluated by testing the inhibitory effect of the compound on cAMP production in HEK293 cells. The cAMP concentration test was performed according to the method described in the kit instructions. The test concentration of the compound was 0.1 nM to 10000 nM. 8-OH-DPAT was used as a positive control. The EC50 was calculated by Excelfit software.
On the technique in general: Time-resolved FRET reads energy transfer from a long-lived donor to a nearby acceptor.

Assay [4] has as its target T3, human recombinant D2 receptor (Homo sapiens, UniProt P14416).
T3 construct: expressed in transfected cells; host or cells: HEK293
Briefly: D2 antagonistic activity test (LANCE cAMP, antagonism of dopamine inhibition of cAMP production in HEK293 cells). In kind it is cell-based. Particulars: HEK293 cells expressing human recombinant D2 receptor; test concentration 0.1 nM to 10000 nM; read-out: D2 Antagonistic Activity (IC50, nmol/L). On the procedure: LANCE™ cAMP 384 Kit (PerkinElmer, USA) was used to test the antagonism of the compound against the D1 receptor using the HEK293 cells expressing human recombinant D1 receptor. The D1 antagonism of the compound was evaluated by testing the antagonistic action of the compounds against dopamine on the induction of cAMP production in HEK293 cells. The cAMP concentration test was performed according to the method described in the kit instructions. The test concentration of the compound was 0.1 nM to 10000 nM. SCH23390 was used as a positive control. The IC50 was calculated by Excelfit software. The test results of some compounds were shown in Table 1. • 2) D2 antagonistic activity test LANCE™ cAMP 384 Kit (PerkinElmer, USA) was used to test the antagonism of the compound against the D2 receptor using the HEK293 cells expressing human recombinant D2 receptor. The D2 antagonism of the compound was evaluated by testing the antagonistic action of the compounds against dopamine on the inhibition of cAMP production in HEK293 cells. The cAMP concentration test was performed according to the method described in the kit instructions. The test concentration of the compound was 0.1 nM to 10000 nM. Risperidone was used as a positive control. The IC50 was calculated by Excelfit software. The test results of some compounds were shown in Table 1 (ND means the test was not performed).

T3 sequence (P14416 whole entry): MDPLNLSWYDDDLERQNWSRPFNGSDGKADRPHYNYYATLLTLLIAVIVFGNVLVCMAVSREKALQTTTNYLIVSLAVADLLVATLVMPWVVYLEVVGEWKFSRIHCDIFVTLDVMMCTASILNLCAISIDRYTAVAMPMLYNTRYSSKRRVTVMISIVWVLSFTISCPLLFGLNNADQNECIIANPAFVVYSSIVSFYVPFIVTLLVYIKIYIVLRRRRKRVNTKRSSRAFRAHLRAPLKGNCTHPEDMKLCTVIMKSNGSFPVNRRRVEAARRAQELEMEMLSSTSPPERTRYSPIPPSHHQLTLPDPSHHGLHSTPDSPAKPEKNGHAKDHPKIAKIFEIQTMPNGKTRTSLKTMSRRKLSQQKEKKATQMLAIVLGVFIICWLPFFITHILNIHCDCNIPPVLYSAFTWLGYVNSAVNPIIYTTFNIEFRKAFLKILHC
T1 sequence (P21728 whole entry): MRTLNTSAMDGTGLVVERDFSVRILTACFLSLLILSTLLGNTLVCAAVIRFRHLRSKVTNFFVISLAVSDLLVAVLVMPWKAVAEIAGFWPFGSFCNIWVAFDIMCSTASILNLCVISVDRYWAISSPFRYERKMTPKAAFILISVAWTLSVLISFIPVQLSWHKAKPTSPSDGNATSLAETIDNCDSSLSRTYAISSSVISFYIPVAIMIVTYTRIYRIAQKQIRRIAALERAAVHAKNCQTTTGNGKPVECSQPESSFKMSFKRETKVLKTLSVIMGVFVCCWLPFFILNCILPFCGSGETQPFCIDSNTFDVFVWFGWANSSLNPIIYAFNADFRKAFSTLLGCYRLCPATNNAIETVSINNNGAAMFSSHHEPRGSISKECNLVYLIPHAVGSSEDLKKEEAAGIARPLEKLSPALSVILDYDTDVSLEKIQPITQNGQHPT

`COc1cc2c(cc1OC)[C@@H]1Cc3ccc(OC)c(C(C)=O)c3CN1CC2` [Example 21, (S)-2,3,10-trimethoxy-9-acetyl-6,8,13,13a-tetrahydro-5H-dibenzo [a,g] quinolizine]: in assay [1], the “Effective Dose” value is given as 20 mg/kg. Besides, the IC50 in assay [2] was determined as 1500 nmol/L. Moreover, the EC50 in assay [3] is 238 nmol/L.
On to `COc1cc2c(cc1OC)[C@@H]1Cc3ccc(OC)c(OC4CC4)c3CN1CC2` [Example 57, (S)-2,3,10-trimethoxy-9-cyclopropoxy-6,8,13,13a-tetrahydro-5H-dibenzo[a,g] quinolizine hydrochloride], for which the “Effective Dose” value in assay [1] came out at 20 mg/kg. The EC50 in assay [3] was 110 nmol/L.
Regarding `COc1cc2c(cc1OC)[C@@H]1Cc3ccc(OC)c(CNC(C)=O)c3CN1CC2` [Example 23, (S)-2,3,10-trimethoxy-9-acetylaminomethyl-6,8,13,13a-tetrahydro-5H-dibenzo[a,g] quinolizine], in assay [3], the EC50 is 1900 nmol/L.
Regarding `COc1cc2c(cc1CO)[C@@H]1Cc3ccc(OC)c(OC)c3CN1CC2` [Example 7, (S)-2-hydroxymethyl-3,9,10-trimethoxy-6,8,13,13a-tetrahydro-5H-dibenzo[a,g] quinolizine], the “Effective Dose” value in assay [1] worked out at 10 mg/kg. Moreover, the values for the IC50 in assay [2] and in assay [4] were 61 nmol/L and 770 nmol/L, respectively.
In the same order, the values of `COc1ccc2c(c1OC)CN1CCc3cc4[nH]c(=O)oc4cc3C1C2` (centres unmarked) [Example 46, 9,10-Dimethoxy-3,5,6,8,13,13a-Hexahydro-2H-isoquinolino[3,2-a] oxazolo[4,5-g]isoquinolin-2-one] are 10 mg/kg, 378 nmol/L and 184 nmol/L.
As for `COc1cc2c(cc1NC(C)=O)[C@@H]1Cc3ccc(OC)c(OC)c3CN1CC2` [Example 14, (S)-2-acetamido-3,9,10-trimethoxy-6,8,13,13a4tetrahydro-5H-dibenzo[a,g] quinolizine hydrochloride], the “Effective Dose” value in assay [1] is recorded as 10 mg/kg. In addition, the EC50 in assay [3] was determined as 514 nmol/L.
Turning to `COc1ccc2c(c1OC)CN1CCc3cc(OC)c4[nH]c(=O)[nH]c4c3[C@@H]1C2` [Example 40, (S)-4,10,11-trimethoxy-3,6,7,9,14,14a-hexahydroimidazo[4,5-h] isoquinolino[3,2-a]isoquinoline-2(1H)-one], the “Effective Dose” value in assay [1] was 20 mg/kg. In addition, the IC50 in assay [2] was 4 nmol/L; in assay [4] it was 27 nmol/L.
Take `COc1cc2c(cc1C(C)=O)[C@@H]1Cc3ccc(OC)c(OC)c3CN1CC2` [Example 12, (S)-2-acetyl-3,9,10-trimethoxy-6,8,13,13a-tetrahydro-5H-dibenzo [a,g] quinolizine]: the results for the IC50 in assay [2] and in assay [4] were 240 nmol/L and 500 nmol/L, respectively. Moreover, the EC50 in assay [3] was found to be 2300 nmol/L.
`COc1cc2c(cc1C)[C@@H]1Cc3ccc(OC)c(OC)c3CN1CC2` [Example 1, (S)-2-methyl-3,9,10-trimethoxy-6,8,13,13a-tetrahydro-5H-dibenzo[a,g] quinolizine]: in assay [1], the “Effective Dose” value was 20 mg/kg. Also, the figures for the IC50 in assay [2] and in assay [4] were 34.9 nmol/L and 620 nmol/L, respectively.
Consider `COc1cc2c(cc1C(N)=O)[C@@H]1Cc3ccc(C(N)=O)c(OC)c3CN1CC2` [Example 38, (S)-2,10-dicarbamoyl-3,9-dimethoxy-6,8,13,13a-tetrahydro-5H-dibenzo[a,g] quinolizine], for which the IC50 in assay [2] stood at 3400 nmol/L; in assay [4], 620 nmol/L. Besides, the EC50 in assay [3] was found to be 4580 nmol/L.
For `COc1ccc2c(c1OC)CN1CCc3cc4c(cc3C1C2)C(=O)NC4=O` (centres unmarked) [Example 36, 9,10-dimethoxy-5,6,13,13a-tetrahydroisoquinolino[3,2-a]pyrrolo [3,4-g]isoquinoline-1,3(2H,8H)-dione], in assay [1], the “Effective Dose” value was found to be 10 mg/kg. Also, the IC50 turned out to be 26.2 nmol/L in assay [2] and 427 nmol/L in assay [4].
With `COc1cc2c(cc1OC)[C@@H]1Cc3ccc(OC)c(OCCO)c3CN1CC2` [Example 56, (S)-2,3,10-trimethoxy-9-hydroxyethoxy-6.8,13,13a-tetrahydro-5H-dibenzo[a,g] quinolizine], the “Effective Dose” value in assay [1] amounted to 20 mg/kg. For the same molecule, the IC50 in assay [2] was found to be 1050 nmol/L; in assay [4] it was 2800 nmol/L. In addition, the EC50 in assay [3] stood at 150 nmol/L.
Take `COc1cc2c(cc1OC)[C@@H]1Cc3ccc(C#N)c(OC)c3CN1CC2` [Example 27, (S)-2,3,9-trimethoxy-10-cyano-6,8,13,13a-tetrahydro-5H-dibenzo[a,g] quinolizine]: the IC50 in assay [2] is 311 nmol/L; in assay [4] it was 1000 nmol/L. In addition, the EC50 in assay [3] is 1200 nmol/L.
For `COc1cc2c(cc1C#N)[C@@H]1Cc3ccc(C#N)c(OC)c3CN1CC2` [Example 37, (S)-2,10-dicyano-3,9-dimethoxy-6,8,13,13a-tetrahydro-5H-dibenzo [a,g] quinolizine] the same measures were 211 nmol/L, 19 nmol/L and 3030 nmol/L.
On to `COc1cc2c(cc1C(N)=O)[C@@H]1Cc3ccc(OC)c(OC)c3CN1CC2` [Example 5, (S)-2-carbamoyl-3,9,10-trimethoxy-6,8,13,13a-tetrahydro-5H-dibenzo [a,g] quinolizine], for which the “Effective Dose” value in assay [1] was 10 mg/kg. For the same molecule, the IC50 came out at 170 nmol/L in assay [2] and 35 nmol/L in assay [4]. Moreover, the EC50 in assay [3] was found to be 450 nmol/L.
For the molecule `COc1ccc2c(c1OC)CN1CCc3cc(C#N)c(C#N)cc3C1C2` (centres unmarked) [Example 35, 2,3-dicyano-9,10-dimethoxy-6,8,13,13a-tetrahydro-5H-dibenzo[a,g] quinolizine], in assay [3], the EC50 came out at 5900 nmol/L.
`COc1cc2c(cc1CCO)[C@@H]1Cc3ccc(OC)c(OC)c3CN1CC2` [Example 18, (S)-2-hydroxyethyl-3,9,10-trimethoxy-6,8,13,13a-tetrahydro-5H-dibenzo[a,g] quinolizine]: the “Effective Dose” value in assay [1] is listed as 20 mg/kg. Besides, the results for the IC50 in assay [2] and in assay [4] were 390 nmol/L and 610 nmol/L, respectively.
For `C=Cc1cc2c(cc1OC)CCN1Cc3c(ccc(OC)c3OC)C[C@@H]21` [Example 17, (S)-2-vinyl-3,9,10-trimethoxy-6,8,13,13a-tetrahydro-5H-dibenzo [a,g] quinolizine], the “Effective Dose” value in assay [1] came out at 20 mg/kg. Further, the IC50 in assay [2] worked out at 240 nmol/L; in assay [4], 150 nmol/L.
In the same order, the values of `C=CCOc1cc2c(cc1OC)CCN1Cc3c(ccc(OC)c3OC)C[C@@H]21` [Example 52, (S)-2-allyloxy-3,9,10-trimethoxy-6,8,13,13a-tetahydro-5H-dibenzo [a,g] quinolizine] are 20 mg/kg, 220 nmol/L and 450 nmol/L.
